Source: paper PMC6372667 (Experimental & Molecular Medicine, 2019)

Legend:
[1] = pharmacokinetic descriptor of the brain ref 53; cited from earlier work
Electric eel AChE = target: T1, Electric eel AChE (Electrophorus electricus, UniProt O42275); experiment: In vitro cholinesterase enzyme assay (Ellman), AChE; format: biochemical
T1 construct: purchased Sigma-Aldrich Co
Excerpt: BACE1 (human recombinant β-secretase) ([…]) and the BACE1 FRET (fluorescence resonance energy transfer) assay kit Red were purchased from ThermoFisher Scientific (P2985; Waltham, MA, USA). […] For the cell culture experiment, Dulbecco’s modified Eagle’s medium (DMEM), Opti-MEM, fetal bovine serum (FBS), and penicillin/streptomycin were obtained from Capricorn Scientific (Ebsdorfergrund, Germany). β-secretase inhibitor III (β-SI) was purchased from Calbiochem (Darmstadt, Germany). The protease inhibitor mixture (a mixture of AEBSF, pepstatin A, E-64, bestain, leupeptin, and aprotinin) was purchased from Sigma-Aldrich (St. Louis, MO, USA). Enzyme-linked immunosorbent assay (ELISA) kits for Aβ40 and Aβ42 were obtained from IBL (Kunma, Japan). All chemicals and solvents used were reagent grade, purchased from commercial sources, and used as received.
The inhibitory activities of pterosin derivatives against cholinesterases were measured using the method developed by Ellman et al.[32]. The reaction mixture contained 140 μL of sodium phosphate buffer (pH 8.0), 20 μL of test sample solution (final concentration of the compound 100 μM), and 20 μL of AChE or BChE solution, mixed and incubated for 15 min at room temperature. […] The reactions were initiated following the addition of 10 μL of DTNB and 10 μL of acetyl thiocholine iodide for the AChE assay or butyryl thiocholine chloride for the BChE assay in 96-well microplates, which were incubated for 15 min.

dementia animal models = conditions: 5 mg/kg i.p. ref 53; cited from earlier work
PAMPA-BBB, literature = format: in vitro ADME; conditions: from log BB = 0.612 × log Pe + 3.206 (ref 49)
BACE1 = conditions: cited from earlier work

T1 sequence (O42275 24-633): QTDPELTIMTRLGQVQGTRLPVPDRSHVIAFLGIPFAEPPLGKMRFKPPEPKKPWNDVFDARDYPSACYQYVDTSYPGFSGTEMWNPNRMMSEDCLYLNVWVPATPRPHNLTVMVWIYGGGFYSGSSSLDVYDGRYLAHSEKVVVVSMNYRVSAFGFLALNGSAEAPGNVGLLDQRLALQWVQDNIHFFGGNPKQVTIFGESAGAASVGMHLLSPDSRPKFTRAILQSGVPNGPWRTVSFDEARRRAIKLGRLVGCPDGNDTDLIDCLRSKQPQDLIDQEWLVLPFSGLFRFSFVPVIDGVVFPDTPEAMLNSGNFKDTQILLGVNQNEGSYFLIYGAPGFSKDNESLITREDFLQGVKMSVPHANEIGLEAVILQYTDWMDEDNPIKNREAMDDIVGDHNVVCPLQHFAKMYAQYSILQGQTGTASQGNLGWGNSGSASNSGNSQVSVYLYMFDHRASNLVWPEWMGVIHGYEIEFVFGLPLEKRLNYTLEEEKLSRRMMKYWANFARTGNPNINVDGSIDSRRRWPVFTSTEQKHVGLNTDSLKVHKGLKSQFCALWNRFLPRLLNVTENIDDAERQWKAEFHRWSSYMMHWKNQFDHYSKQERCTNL

SMILES: COc1ccc2cc3[n+](cc2c1OC)CCc1cc2c(cc1-3)OCO2 [Berberine, berberine]
- log BB [1]: −0.35
- IC50 (Electric eel AChE): 390 ± 10 nM
- Cognitive effect (dementia animal models): procognitive and antiamnestic properties
- log Pe corresponding to log BB (PAMPA-BBB, literature): −5.8
- BACE1-inhibitory activity (BACE1): lacks
